According to US20210122730A1, “GLUCOCORTICOID RECEPTOR MODULATORS” (ORIC Pharmaceuticals, Inc., priority 2017, published 2021):

These compounds were tested against T1, GR (Homo sapiens, UniProt P04150) (assay: In Vitro GR Luciferase Reporter Assay (antagonist mode, CHO-K1-GR-MMTV-Luc reporter cells)). Details: antagonist assay with 10 nM Dexamethasone, 18-24 hours.
T1 construct: expressed in transfected cells; host or cells: CHO-K1
T1 sequence (P04150 1-777): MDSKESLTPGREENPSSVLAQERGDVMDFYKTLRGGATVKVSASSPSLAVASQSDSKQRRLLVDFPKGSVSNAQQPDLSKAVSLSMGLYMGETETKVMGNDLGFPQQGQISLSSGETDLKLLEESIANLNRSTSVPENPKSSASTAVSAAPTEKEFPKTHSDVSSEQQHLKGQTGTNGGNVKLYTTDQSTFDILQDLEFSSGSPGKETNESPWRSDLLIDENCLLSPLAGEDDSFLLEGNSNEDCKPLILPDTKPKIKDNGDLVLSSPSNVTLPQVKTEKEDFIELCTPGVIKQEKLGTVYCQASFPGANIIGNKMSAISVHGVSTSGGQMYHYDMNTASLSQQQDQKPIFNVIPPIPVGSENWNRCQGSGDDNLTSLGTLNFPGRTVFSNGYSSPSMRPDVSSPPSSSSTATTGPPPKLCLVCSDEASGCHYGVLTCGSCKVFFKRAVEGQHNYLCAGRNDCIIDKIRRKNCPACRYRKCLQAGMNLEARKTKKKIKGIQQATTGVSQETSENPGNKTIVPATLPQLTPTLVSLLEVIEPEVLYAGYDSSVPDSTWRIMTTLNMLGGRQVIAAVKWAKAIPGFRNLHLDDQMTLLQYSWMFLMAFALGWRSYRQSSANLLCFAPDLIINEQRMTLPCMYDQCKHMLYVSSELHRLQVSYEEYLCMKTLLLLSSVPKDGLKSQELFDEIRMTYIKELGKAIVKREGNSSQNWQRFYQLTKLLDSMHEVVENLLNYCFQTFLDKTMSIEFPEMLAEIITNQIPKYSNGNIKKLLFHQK
Type: cell-based
Excerpt: Example A: In Vitro GR Luciferase Reporter Assay
Cell Line: CHO-K1-GR-MMTV-Luc reporter cells
Culture Media: DMEM (with phenol red)+10% FBS
Assay Media: DMEM (without phenol red)+10% CSS
Culture CHO-K1I-GR-MMTV-Luc reporter cells in 15 cm plates in Culture Media at conditions less than 90% confluence.
Prepare 200×DMSO 1:5 serial dilutions of control and test compounds in 96-well non-sterile V bottom plate in DMSO, 8serial dilutions for each compound.
Prepare 5× Assay Media diluted compound serial dilutions in 96-well non-sterile V bottom plate: Add 97.5 uL/well of Assay Media into 96-well then add 2.5 ul of 200× concentration of compounds and mix well.
Seed cells for Antagonist Assay: […] CHO-K1-GR-MMTV-Luc reporter cells were seeded in a Corning 3707 flat clear bottom 384-well white TC plate in 20 ul of Assay Media containing 12.5 nM Dexamethasone (final concentration=10 nM).
Add compounds: 5 ul of assay media diluted compounds were added to appropriate wells and followed a quick spin (1000 rpm, 10 sec) to bring media and cells to the bottom of plate. The plates were covered with SealMate film to avoid evaporation and placed in 37° C. incubator for approximately 18-24 hours.
Read plates: Equilibrate appropriate amount of Promega OneGlo luciferase reagent to room temperature. Remove the plates from incubator and add 25 uL of OneGlo reagent/well by multiple channel pipette and read the plates with Tecan F500 luminometer within 3 minutes.
The ability of the compounds disclosed herein to inhibit GR activity was quantified and the respective IC50 value was determined. Table 1and Table 2provide the cellular IC50 values of compounds disclosed herein.

O=C(c1ccccn1)[C@]12Cc3cnn(-c4ccc(F)cc4)c3C=C1CC[C@@H](S(=O)(=O)c1ccc(F)c(F)c1)C2 [Example 16, ((4aS,6R)-6-((3,4-difluorophenyl)sulfonyl)-1-(4-fluorophenyl)-1,4,5,6,7,8-hexahydro-4aH-benzo[f]indazol-4a-yl)(pyridin-2-yl)methanone] and O=C(c1ccccn1)[C@]12Cc3cnn(-c4ccc(F)cc4)c3C=C1CC[C@H](S(=O)(=O)c1ccc(F)c(F)c1)C2 [Example 22, ((4aS,6S)-6-((3,4-difluorophenyl)sulfonyl)-1-(4-fluorophenyl)-1,4,5,6,7,8-hexahydro-4aH-benzo[f]indazol-4a-yl)(pyridin-2-yl)methanone] cannot be ordered by IC50: ≤ 0.1 µM for the first, ≤ 0.1 µM for the second.

O=C(c1cc(C(F)(F)F)ccn1)[C@]12Cc3cnn(-c4ccc(F)cc4)c3C=C1CC[C@@H](S(=O)(=O)c1cccc(C(F)(F)F)c1)C2 [Example 17, ((4aS,6R)-1-(4-fluorophenyl)-6-((3-(trifluoromethyl)phenyl)sulfonyl)-1,4,5,6,7,8-hexahydro-4aH-benzo[f]indazol-4a-yl)(4-(trifluoromethyl)pyridin-2-yl)methanone] and O=C(c1ccccn1)[C@]12Cc3cnn(-c4ccc(F)cc4)c3C=C1CC[C@@H](S(=O)(=O)c1cccc(C(F)(F)F)c1)C2 [Example 18, ((4aS,6R)-1-(4-fluorophenyl)-6-((3-(trifluoromethyl)phenyl)sulfonyl)-1,4,5,6,7,8-hexahydro-4aH-benzo[f]indazol-4a-yl)(pyridin-2-yl)methanone] cannot be ordered by IC50: ≤ 0.1 µM for the first, ≤ 0.1 µM for the second.

COc1ccc(S(=O)(=O)[C@H]2CCC3=Cc4c(cnn4-c4ccc(F)cc4)C[C@]3(C(=O)c3ccccn3)C2)cc1 [Example 19, ((4aS,6S)-1-(4-fluorophenyl)-6-((4-methoxyphenyl)sulfonyl)-1,4,5,6,7,8-hexahydro-4aH-benzo[f]indazol-4a-yl)(pyridin-2-yl)methanone] and O=C(c1ccccn1)[C@]12Cc3cnn(-c4ccc(F)cc4)c3C=C1CC[C@H](S(=O)(=O)c1ccc(F)cc1)C2 [Example 25, ((4aS,6S)-1-(4-fluorophenyl)-6-((4-fluorophenyl)sulfonyl)-1,4,5,6,7,8-hexahydro-4aH-benzo[f]indazol-4a-yl)(pyridin-2-yl)methanone] cannot be ordered by IC50: ≤ 0.1 µM for the first, ≤ 0.1 µM for the second.

O=C(c1ccccn1)[C@]12Cc3cnn(-c4ccc(F)cc4)c3C=C1CC[C@H](S(=O)(=O)c1ccccc1)C2 [Example 20, ((4aS,6S)-1-(4-fluorophenyl)-6-(phenylsulfonyl)-1,4,5,6,7,8-hexahydro-4aH-benzo[f]indazol-4a-yl)(pyridin-2-yl)methanone] and O=C(c1ccccn1)[C@]12Cc3cnn(-c4ccc(F)cc4)c3C=C1CC[C@@H](S(=O)(=O)c1ccccc1)C2 [Example 24, ((4aS,6R)-1-(4-fluorophenyl)-6-(phenylsulfonyl)-1,4,5,6,7,8-hexahydro-4aH-benzo[f]indazol-4a-yl)(pyridin-2-yl)methanone] cannot be ordered by IC50: ≤ 0.1 µM for the first, ≤ 0.1 µM for the second.

O=C(c1ccccn1)[C@]12Cc3cnn(-c4ccc(F)cc4)c3C=C1CC[C@H](S(=O)(=O)Cc1ccccc1)C2 [Example 21, ((4aS,6S)-6-(benzylsulfonyl)-1-(4-fluorophenyl)-1,4,5,6,7,8-hexahydro-4aH-benzo[f]indazol-4a-yl)(pyridin-2-yl)methanone] and O=C(c1ccccn1)[C@]12Cc3cnn(-c4ccc(F)cc4)c3C=C1CC[C@H](S(=O)(=O)c1ccccn1)C2 [Example 26, ((4aS,6S)-1-(4-fluorophenyl)-6-(pyridin-2-ylsulfonyl)-1,4,5,6,7,8-hexahydro-4aH-benzo[f]indazol-4a-yl)(pyridin-2-yl)methanone] cannot be ordered by IC50: ≤ 0.1 µM for the first, ≤ 0.1 µM for the second.

Cc1ccnc(C(=O)[C@]23Cc4cnn(-c5ccc(F)cc5)c4C=C2CC[C@H](S(=O)(=O)c2cnn(C)c2)C3)c1 [Example 23, ((4aS,6S)-1-(4-fluorophenyl)-6-((1-methyl-1H-pyrazol-4-yl)sulfonyl)-1,4,5,6,7,8-hexahydro-4aH-benzo[f]indazol-4a-yl)(4-methylpyridin-2-yl)methanone] and Cc1ccnc(C(=O)[C@]23Cc4cnn(-c5ccc(F)cc5)c4C=C2CC[C@H](S(=O)(=O)c2ccccn2)C3)c1 [Example 34, ((4aS,6S)-1-(4-fluorophenyl)-6-(pyridin-2-ylsulfonyl)-1,4,5,6,7,8-hexahydro-4aH-benzo[f]indazol-4a-yl)(4-methylpyridin-2-yl)methanone] cannot be ordered by IC50: ≤ 0.1 µM for the first, ≤ 0.1 µM for the second.

O=C(c1cc(C(F)(F)F)ccn1)[C@]12Cc3cnn(-c4ccc(F)cc4)c3C=C1CC[C@@H](S(=O)(=O)c1cnns1)C2 [Example 27, ((4aS,6R)-6-((1,2,3-thiadiazol-5-yl)sulfonyl)-1-(4-fluorophenyl)-1,4,5,6,7,8-hexahydro-4aH-benzo[f]indazol-4a-yl)(4-(trifluoromethyl)pyridin-2-yl)methanone] and Cn1ncc(S(=O)(=O)[C@H]2CCC3=Cc4c(cnn4-c4ccc(F)cc4)C[C@]3(C(=O)c3cc(C(F)(F)F)ccn3)C2)n1 [Example 33, ((4aS,6S)-1-(4-fluorophenyl)-6-((2-methyl-2H-1,2,3-triazol-4-yl)sulfonyl)-1,4,5,6,7,8-hexahydro-4aH-benzo[f]indazol-4a-yl)(4-(trifluoromethyl)pyridin-2-yl)methanone] cannot be ordered by IC50: 0.1 to 1 µM for the first, ≤ 0.1 µM for the second.

O=C(c1ccccn1)[C@]12Cc3cnn(-c4ccc(F)cc4)c3C=C1CC[C@H](S(=O)(=O)c1cccc(C(F)(F)F)c1)C2 [Example 28, ((4aS,6S)-1-(4-fluorophenyl)-6-((3-(trifluoromethyl)phenyl)sulfonyl)-1,4,5,6,7,8-hexahydro-4aH-benzo[f]indazol-4a-yl)(pyridin-2-yl)methanone] and Cc1ccc(C(=O)[C@]23Cc4cnn(-c5ccc(F)cc5)c4C=C2CC[C@H](S(=O)(=O)c2cccc(C(F)(F)F)c2)C3)nc1 [Example 31, ((4aS,6S)-1-(4-fluorophenyl)-6-((3-(trifluoromethyl)phenyl)sulfonyl)-1,4,5,6,7,8-hexahydro-4aH-benzo[f]indazol-4a-yl)(5-methylpyridin-2-yl)methanone] cannot be ordered by IC50: ≤ 0.1 µM for the first, ≤ 0.1 µM for the second.

O=C(c1ccccn1)[C@]12Cc3cnn(-c4ccc(F)cc4)c3C=C1CC[C@@H](S(=O)(=O)c1ccc(F)cc1)C2 [Example 29, ((4aS,6R)-1-(4-fluorophenyl)-6-((4-fluorophenyl)sulfonyl)-1,4,5,6,7,8-hexahydro-4aH-benzo[f]indazol-4a-yl)(pyridin-2-yl)methanone] and O=C(c1ccccn1)[C@]12Cc3cnn(-c4ccc(F)cc4)c3C=C1CC[C@H](S(=O)(=O)c1ccc(C(F)(F)F)cn1)C2 [Example 32, ((4aS,6S)-1-(4-fluorophenyl)-6-((5-(trifluoromethyl)pyridin-2-yl)sulfonyl)-1,4,5,6,7,8-hexahydro-4aH-benzo[f]indazol-4a-yl)(pyridin-2-yl)methanone] cannot be ordered by IC50: 0.1 to 1 µM for the first, ≤ 0.1 µM for the second.

In the case of Cc1ccnc(C(=O)[C@]23Cc4cnn(-c5ccc(F)cc5)c4C=C2CC[C@H](S(=O)(=O)c2ccc(F)c(F)c2)C3)c1 [Example 30, ((4aS,6S)-6-((3,4-difluorophenyl)sulfonyl)-1-(4-fluorophenyl)-1,4,5,6,7,8-hexahydro-4aH-benzo[f]indazol-4a-yl)(4-methylpyridin-2-yl)methanone], the IC50 is reported as ≤ 0.1 µM.
